# Data taken from US11654199B2 (BOLT BIOTHERAPEUTICS, INC., priority 2019, dated 2023).
# Target: T1, human TLR8 (Homo sapiens, UniProt Q9NR97)
# T1 construct: host or cells: HEK293 reporter cells
# T1 sequence (Q9NR97 27-1041): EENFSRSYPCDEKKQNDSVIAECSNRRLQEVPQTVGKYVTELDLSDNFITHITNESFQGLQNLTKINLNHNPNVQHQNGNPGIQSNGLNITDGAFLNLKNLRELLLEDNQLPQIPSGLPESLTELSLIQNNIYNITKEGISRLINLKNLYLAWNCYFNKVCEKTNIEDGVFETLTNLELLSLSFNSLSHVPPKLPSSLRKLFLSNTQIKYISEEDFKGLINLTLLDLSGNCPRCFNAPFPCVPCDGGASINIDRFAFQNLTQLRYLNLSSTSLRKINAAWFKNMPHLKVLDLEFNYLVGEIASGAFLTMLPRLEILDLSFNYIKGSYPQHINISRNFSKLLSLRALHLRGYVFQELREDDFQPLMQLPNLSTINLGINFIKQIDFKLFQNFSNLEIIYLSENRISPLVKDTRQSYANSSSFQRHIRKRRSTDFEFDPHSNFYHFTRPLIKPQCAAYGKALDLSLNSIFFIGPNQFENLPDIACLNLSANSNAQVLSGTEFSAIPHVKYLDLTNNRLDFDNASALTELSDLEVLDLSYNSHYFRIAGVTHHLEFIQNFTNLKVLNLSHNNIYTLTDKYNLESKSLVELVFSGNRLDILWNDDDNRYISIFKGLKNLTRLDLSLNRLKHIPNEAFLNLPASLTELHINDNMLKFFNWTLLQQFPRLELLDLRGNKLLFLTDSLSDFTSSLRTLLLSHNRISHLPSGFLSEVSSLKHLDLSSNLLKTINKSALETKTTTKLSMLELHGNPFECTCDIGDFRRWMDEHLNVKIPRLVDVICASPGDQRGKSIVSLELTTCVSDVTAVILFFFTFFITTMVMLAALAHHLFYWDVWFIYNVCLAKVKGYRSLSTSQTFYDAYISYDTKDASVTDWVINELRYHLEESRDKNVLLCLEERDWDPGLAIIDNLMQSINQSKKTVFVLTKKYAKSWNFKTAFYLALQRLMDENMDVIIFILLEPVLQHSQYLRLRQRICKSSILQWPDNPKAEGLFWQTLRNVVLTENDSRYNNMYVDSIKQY
# Assay: HEK293 NFKB reporter assay, human TLR8
# Type: cell-based
# Settings: HEK293 NFKB reporter cells expressing human TLR8; read-out: HEK293 hTLR8 EC50
# Experimental: Each compound was synthesized, purified, and characterized by mass spectrometry and shown to have the mass indicated. Additional experimental procedures are found in the Examples. Activity against HEK293 NFKB reporter cells expressing human TLR7 or human TLR8 was measured according to Example 202.
# HEK293 reporter cells expressing human TLR7 or human TLR8 were purchased from Invivogen and vendor protocols were followed for cellular propagation and experimentation. Briefly, cells were grown to 80-85% confluence at 5% CO2 in DMEM supplemented with 10% FBS, Zeocin, and Blasticidin. Cells were then seeded in 96-well flat plates at 4×10^4 cells/well with substrate containing HEK detection medium and immunostimulatory molecules. Activity was measured using a plate reader at 620-655 nm wavelength.
row,EC50 [nM],Compound
1,2830,CCCN(CCC)C(=O)C1=Cc2sc(CNC(=O)CN)cc2N=C(N)C1 [TAZ-92]
2,7950,CCCN(CCC)C(=O)C1=Cc2sc(COCCN)cc2N=C(N)C1 [TAZ-81]
3,6110,"CCCN(CC#CCNC(=O)OC(C)(C)C)C(=O)C1=Cc2sccc2N=C(N)C1 [TAZ-16, tert-butyl N-[4-[(5-amino-6H-thieno[3,2-b]azepine-7-carbonyl)-propyl-amino]but-2-ynyl]carbamate]"
4,4300,CCCN(C[C@H]1C[C@H](CN)C1)C(=O)C1=Cc2sccc2N=C(N)C1 [TAZ-69]
5,> 9000,CCCN(C(=O)C1=Cc2sccc2N=C(N)C1)N(C)CC [TAZ-100]
6,> 9000,CCCN(C[C@H]1CC[C@H](CN)CC1)C(=O)C1=Cc2sccc2N=C(N)C1 [TAZ-97]
7,4440,CCCN(C[C@H]1CC[C@@H](CN)CC1)C(=O)C1=Cc2sccc2N=C(N)C1 [TAZ-118]
8,4940,"CCCN(CCC)C(=O)C1=Cc2sc(CCCCCN)cc2N=C(N)C1 [TAZ-14, 5-amino-2-(5-aminopentyl)-N,N-dipropyl-6H-thieno [3,2-b]azepine-7-carboxamide]"
9,7800,CCCN(OCC)C(=O)C1=Cc2sc(C#CC3(O)CN(C(=O)OC(C)(C)C)C3)cc2N=C(N)C1 [TAZ-188]
10,164,CCCN(OCC)C(=O)C1=Cc2sc(CN3CCC(N)CC3)cc2N=C(N)C1 [TAZ-243]
11,3780,CCCN(OCC)C(=O)C1=Cc2sc(CN3C[C@@H]4CN(C(=O)OC(C)(C)C)C[C@@H]4C3)cc2N=C(N)C1 [TAZ-242]
12,1110,CCCN(OCC)C(=O)C1=Cc2sc(CN3CC4(CCN4Cc4ccccc4)C3)cc2N=C(N)C1 [TAZ-246]
13,2540,CCCN(OCC)C(=O)C1=Cc2sc(CC3CCN(C(=O)OC(C)(C)C)CC3)cc2N=C(N)C1 [TAZ-179]
14,3870,CCCN(CCC)C(=O)C1=Cc2scc(C)c2N=C(N)C1 [TAZ-168]
15,311,"CCCN(Cc1ccc(CNC)cc1)C(=O)C1=Cc2sc(CCCCCN(C)C)cc2N=C(N)C1 [TAZ-65, 5-amino-2-[5-(dimethylamino)pentyl]-N-[[4-(methylaminomethyl)phenyl]methyl]-N-propyl-6H-thieno[3,2-b]azepine-7-carboxamide]"
16,1110,CCCN(OCC)C(=O)C1=Cc2sc(CN3C[C@H]4CN(C(=O)OC(C)(C)C)C[C@@H]4C3)cc2N=C(N)C1 [TAZ-248]
17,418,CCCN(OCC)C(=O)C1=Cc2sc(CN3C[C@H]4CNC[C@H]4C3)cc2N=C(N)C1 [TAZ-247]
18,641,"CCCN(Cc1ccc(CN)cc1)C(=O)C1=Cc2sccc2N=C(N)C1 [TAZ-30, 5-amino-N-(4-(aminomethyl)benzyl)-N-propyl-6H-thieno[3,2-b]azepine-7-carboxamide]"
19,964,CCCN(OCC)C(=O)C1=Cc2sc(C#CC3CN(C(=O)OC(C)(C)C)C3)cc2N=C(N)C1 [TAZ-187]
20,3410,CCCN(Cc1ncco1)C(=O)C1=Cc2sc(CC3CNC3)cc2N=C(N)C1 [TAZ-256]
21,2390,"CCCN(CCC)C(=O)C1=Cc2sccc2N=C(N)C1 [TAZ-2, 5-amino-N,N-dipropyl-6H-thieno[3,2-b]azepine-7-carboxamide]"
22,631,CCCN(C[C@H]1CC[C@H](CNC(=O)OC(C)(C)C)CC1)C(=O)C1=Cc2sccc2N=C(N)C1 [TAZ-98]
23,4100,"CCCN(CC#CCN)C(=O)C1=Cc2sccc2N=C(N)C1 [TAZ-17, 5-amino-N-(4-aminobut-2-ynyl)-N-propyl-6H-thieno[3,2-b]azepine-7-carboxamide]"
24,4320,CCCN(OCC)C(=O)C1=Cc2sc(CN3CC(CN)C3)cc2N=C(N)C1 [TAZ-211]
25,2960,CCCN(OCC)C(=O)C1=Cc2sc(CN3Cc4ccc(NC(=O)CCN)cc4C3)cc2N=C(N)C1 [TAZ-201]
26,203,CCCN(OCc1ccc(OC)cc1)C(=O)C1=Cc2sccc2N=C(N)C1 [TAZ-101]
